One assay has as its target CYP3A4 (Homo sapiens, UniProt P08684). The assay is described as follows: P450-Glo CYP3A4 luciferin isopropylacetal (Luc-IP) assay.
In the next assay the target is T1, Recombinant TDO (Homo sapiens, UniProt P48775).
T1 construct: Recombinant TDO (Seegers, N., et al.) and all other assay components were diluted in TDO reaction buffer
The assay is described as follows: Biochemical assay for TDO (NFK GreenScreen). The note with it: 50 nM TDO, 200 μM L-tryptophan. The protocol:
Biochemical Assay for TDO
The NFK GreenScreen™ assay technology was also used to determine the inhibitory activity of compounds on TDO (Seegers, N., et al., J. Biol. Screen. 19: 1266; 2014). Compounds were serially diluted in DMSO and finally in TDO reaction buffer, consisting of 100 mM NaH2PO4, pH 7.0, supplemented with 0.02% Tween-20 (cat. No. P7949; Sigma Aldrich). Recombinant TDO (Seegers, N., et al.) and all other assay components were diluted in TDO reaction buffer. 10 μl of compound solution and 20 μl of enzyme solution supplemented with 200 μM ascorbic acid were combined in the well of a black 384-well plate (cat. no. 3573; Corning, Corning, N.Y., USA), and incubated for 60 min at room temperature. Subsequently, 10 μl of 0.8 mM of the substrate L-tryptophan was added, i.e., the final concentration of L-tryptophan was 200 μM. The DMSO concentration in the assay was 0.3%. The concentration of TDO was 50 nM. Incubation was continued for 15 min at room temperature. Then, 10 μl of NFK Green™ (NTRC, Oss, The Netherlands) was added, the plate was sealed, and the reaction was developed for 3 hours at 37° C. To determine the production of N-formyl kynurenine (NFK), the seal was removed and fluorescence was read on an EnVision multimode reader (Perkin Elmer, Waltham, Mass., USA). IC50 were calculated using XLfit™ software (ID Business Solutions, Ltd., Surrey, U.K.).

In the next assay the target is CYP2D6 (Homo sapiens, UniProt P10635). The assay can be described thus: P450-Glo CYP2D6 Luc-IP assay.

pIC50: −log10 of the molar value. Some results are limits rather than exact numbers.

As usually defined, the pIC50 is the IC50 on a negative log10 scale, so that one unit is a factor of ten.

T1 sequence (P48775 whole entry): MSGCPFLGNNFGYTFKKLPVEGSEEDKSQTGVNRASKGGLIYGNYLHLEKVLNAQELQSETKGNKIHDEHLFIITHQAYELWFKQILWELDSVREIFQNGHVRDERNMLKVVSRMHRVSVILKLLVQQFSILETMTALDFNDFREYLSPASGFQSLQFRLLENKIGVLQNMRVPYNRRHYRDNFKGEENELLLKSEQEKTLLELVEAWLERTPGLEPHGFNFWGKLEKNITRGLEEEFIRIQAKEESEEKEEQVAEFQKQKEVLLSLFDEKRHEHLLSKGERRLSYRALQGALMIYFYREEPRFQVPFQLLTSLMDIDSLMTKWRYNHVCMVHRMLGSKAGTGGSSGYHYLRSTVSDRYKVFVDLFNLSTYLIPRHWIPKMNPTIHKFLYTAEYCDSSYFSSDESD
Sequence of CYP2D6 (P10635 whole entry): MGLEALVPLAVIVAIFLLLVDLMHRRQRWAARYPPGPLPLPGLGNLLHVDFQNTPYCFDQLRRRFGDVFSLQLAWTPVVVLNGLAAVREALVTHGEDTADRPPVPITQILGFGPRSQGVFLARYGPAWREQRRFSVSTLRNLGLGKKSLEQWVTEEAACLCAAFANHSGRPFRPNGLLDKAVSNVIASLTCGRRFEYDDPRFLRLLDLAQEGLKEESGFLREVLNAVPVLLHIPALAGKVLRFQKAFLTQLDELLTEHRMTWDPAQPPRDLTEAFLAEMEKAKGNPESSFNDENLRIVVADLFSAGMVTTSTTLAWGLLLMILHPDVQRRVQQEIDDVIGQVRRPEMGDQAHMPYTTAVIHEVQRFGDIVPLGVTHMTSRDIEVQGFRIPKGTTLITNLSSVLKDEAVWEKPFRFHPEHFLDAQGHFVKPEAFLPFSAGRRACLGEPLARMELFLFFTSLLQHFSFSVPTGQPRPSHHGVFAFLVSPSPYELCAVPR
Sequence of CYP3A4 (P08684 whole entry): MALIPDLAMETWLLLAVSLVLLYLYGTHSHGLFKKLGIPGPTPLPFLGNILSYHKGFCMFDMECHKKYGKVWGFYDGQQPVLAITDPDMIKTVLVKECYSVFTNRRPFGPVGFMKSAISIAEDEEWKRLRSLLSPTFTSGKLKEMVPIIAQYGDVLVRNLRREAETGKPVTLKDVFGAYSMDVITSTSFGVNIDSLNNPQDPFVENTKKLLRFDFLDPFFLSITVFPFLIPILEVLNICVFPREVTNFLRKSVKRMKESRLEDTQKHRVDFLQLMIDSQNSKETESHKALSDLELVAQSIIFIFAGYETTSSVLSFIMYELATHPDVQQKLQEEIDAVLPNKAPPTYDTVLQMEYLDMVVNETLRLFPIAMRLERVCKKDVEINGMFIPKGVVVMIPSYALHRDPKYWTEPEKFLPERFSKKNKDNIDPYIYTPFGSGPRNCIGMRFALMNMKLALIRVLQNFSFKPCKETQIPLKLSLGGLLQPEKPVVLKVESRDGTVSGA
Excerpt for CYP3A4: To determine the inhibitory potency of compounds on CYP3A4 enzyme, the P450-Glo CYP3A4 luciferin isopropylacetal (Luc-IP) assay was used (Promega, Madison, Wis., USA, Cat. No. V9920). The assay makes use of a luminogenic isopropylacetal (IPA) substrate that is a derivative from beetle luciferin, a substrate of luciferase enzymes. The IPA substrate is converted by CYP3A4 to luciferin, which in turn reacts with luciferase to produce an amount of light that is directly proportional to the activity of CYP3A4. Compounds were serially diluted in DMSO and finally in 400 mM K2HPO4, pH 7.4. 5 μl of compound solution and 5 μl of CYP3A4/substrate solution were combined in the well of a white 384-well Optiplate (Perkin Elmer). The DMSO concentration in the assay was 0.1%. After incubation for 10 minutes at room temperature in the dark, 10 μl of NADPH regeneration system was added and incubation was continued for 10 min. Then, 20 μl of Luciferin Detection Reagent was added to stop the reaction, and incubation was continued for another 20 min. Luminescence was measured on an Envision multimode reader and IC50 values were calculated using XLfit™. […] Instead of in a 96-well plate, the assay was performed in 384-well white Perkin Elmer Optiplate (cat. no. 6007290).

Consider `O=C(NOC(CO)CO)c1ccc(-c2c[nH]c3cc(F)ccc23)cc1` [Example 65, 4-(6-Fluoro-1H-indol-3-yl)-N-[2-hydroxy-1-(hydroxymethyl)ethoxy]benzamide], for which the pIC50 against CYP3A4 was 5.00 to 5.30; at Recombinant TDO it was greater than 6.00; on CYP2D6, less than 5.00.

As to `Cc1cc(CC(=O)Nc2ccc(-c3c[nH]c4cc(F)ccc34)cc2)no1` [Example 99, N-[4-(6-Fluoro-/H-indol-3-yl)phenyl]-2-(5-methylisoxazol-3-yl)acetamide], the pIC50 was less than 5.00 on CYP3A4, 5.30 to 6.00 at Recombinant TDO and less than 5.00 on CYP2D6.

In the case of `O=C(CC1(O)CCCC1)Nc1ccc(-c2c[nH]c3cc(F)ccc23)cc1` [Example 98, N-[4-(6-fluoro-1H-indol-3-yl)phenyl]-2-(1-hydroxycyclopentyl)acetamide], the pIC50 is less than 5.00 against CYP3A4, greater than 6.00 at Recombinant TDO and less than 5.00 against CYP2D6.

On to `O=C(CC1COC1)Nc1ccc(-c2c[nH]c3cc(F)ccc23)cc1` [Example 30, N-[4-(6-fluoro-1H-indol-3-yl)phenyl]-2-(oxetan-3-yl)acetamide], for which the pIC50 at CYP3A4 is less than 5.00; on Recombinant TDO, greater than 6.00; at CYP2D6, less than 5.00.

Turning to `CC(C)(O)CC(=O)Nc1ccc(-c2c[nH]c3cc(F)ccc23)cc1` [Example 35, N-[4-(6-fluoro-1H-indol-3-yl)phenyl]-3-hydroxy-3-methyl-butanamide], the figures for the negative-log IC50 (pIC50) against CYP3A4, at Recombinant TDO and against CYP2D6 were less than 5.00, greater than 6.00 and less than 5.00, respectively.

With `CCNC(=O)Nc1ccc(-c2c[nH]c3cc(F)ccc23)cc1` [Example 6, 1-Ethyl-3-[4-(6-fluoro-1H-indol-3-yl)phenyl]urea], the results for the pIC50 on CYP3A4, on Recombinant TDO and against CYP2D6 were less than 5.00, 5.30 to 6.00 and less than 5.00, respectively.

For `C[C@H](NC(=O)c1ccc(-c2c[nH]c3cc(F)ccc23)cc1)C(C)(C)C` [Example 88, 4-(6-Fluoro-1H-indol-3-yl)-N-[(1S)-1,2,2-trimethylpropyl]benzamide], the pIC50 against CYP3A4 was less than 5.00; on Recombinant TDO it was 5.30 to 6.00; on CYP2D6, less than 5.00.

On to `C[C@@H](CO)NC(=O)c1ccc(-c2c[nH]c3ccc(F)cc23)cc1` [Example 40, 4-(5-Fluoro-1H-indol-3-yl)-N-[(1S)-2-hydroxy-1-methyl-ethyl]benzamide], for which the pIC50 against CYP3A4 was less than 5.00; at Recombinant TDO, greater than 6.00; against CYP2D6, less than 5.00.

As to `Cc1cc(C(=O)N[C@H]2CCCNC2)ccc1-c1c[nH]c2cc(F)ccc12` [Example 130, 4-(6-Fluoro-1H-indol-3-yl)-3-methyl-N-[(3S)-3-piperidyl]benzamide], the figures for the pIC50 against CYP3A4, on Recombinant TDO and on CYP2D6 were 5.00 to 5.30, greater than 6.00 and less than 5.00, respectively.

For the compound `CN1CC(C(=O)Nc2ccc(-c3c[nH]c4cc(F)ccc34)cc2)CCC1=O` (centres unmarked) [Example 108, N-[4-(6-fluoro-1H-indol-3-yl)phenyl]-1-methyl-6-oxo-piperidine-3-carboxamide], the pIC50 was less than 5.00 on CYP3A4, 5.30 to 6.00 on Recombinant TDO and less than 5.00 on CYP2D6.

Consider `COC(=O)CNC(=O)c1ccc(-c2c[nH]c3cc(F)ccc23)cc1` [Example 138, Methyl 2-[[4-(6-fluoro-1H-indol-3-yl)benzoyl]amino]acetate], for which the pIC50 is less than 5.00 against CYP3A4, greater than 6.00 at Recombinant TDO and less than 5.00 against CYP2D6.

On to `N#CCC(=O)Nc1ccc(-c2c[nH]c3cc(F)ccc23)cc1` [Example 32, 2-Cyano-N-[4-(6-fluoro-1H-indol-3-yl)phenyl]acetamide], for which the pIC50 is less than 5.00 against CYP3A4, greater than 6.00 at Recombinant TDO and less than 5.00 on CYP2D6.

Consider `O=C(NCC1(O)CCCCC1)c1ccc(-c2c[nH]c3cc(F)ccc23)cc1` [Example 89, 4-(6-Fluoro-1H-indol-3-yl)-N-[(1-hydroxycyclohexyl)methyl]benzamide], for which the pIC50 was less than 5.00 against CYP3A4, 5.30 to 6.00 at Recombinant TDO and less than 5.00 on CYP2D6.

As to `CCCC(C)NC(=O)c1ccc(-c2c[nH]c3cc(F)ccc23)cc1` (centres unmarked) [Example 22, 4-(6-Fluoro-1H-indol-3-yl)-N-(1-methylbutyl)benzamide], the pIC50 at CYP3A4 was less than 5.00; on Recombinant TDO, greater than 6.00; on CYP2D6, less than 5.00.

For the compound `Cc1cc(C(=O)N[C@H](C)CO)ccc1-c1c[nH]c2cc(F)ccc12` [Example 128, 4-(6-Fluoro-1H-indol-3-yl)-N-[(1R)-2-hydroxy-1-methyl-ethyl]-3-methyl-benzamide], the results for the pIC50 at CYP3A4, at Recombinant TDO and against CYP2D6 were 5.00 to 5.30, 5.30 to 6.00 and 5.00 to 5.30, respectively.

In the case of `O=C(CCc1ccccc1)Nc1ccc(-c2c[nH]c3cc(F)ccc23)cc1` [Example 96, N-[4-(6-fluoro-1H-indol-3-yl)phenyl]-3-phenyl-propanamide], the pIC50 is less than 5.00 on CYP3A4, 5.30 to 6.00 at Recombinant TDO and less than 5.00 at CYP2D6.

`CNC(=O)Nc1ccc(-c2c[nH]c3cc(F)ccc23)cc1` [Example 5, 1-[4-(6-Fluoro-1H-indol-3-yl)phenyl]-3-methyl-urea]: the pIC50 is less than 5.00 at CYP3A4, greater than 6.00 at Recombinant TDO and less than 5.00 at CYP2D6.

With `O=C(NCC1CC(F)(F)C1)c1ccc(-c2c[nH]c3cc(F)ccc23)cc1` [Example 9, N-[(3,3-difluorocyclobutyl)methyl]-4-(6-fluoro-1H-indol-3-yl)benzamide], the pIC50 at CYP3A4 is less than 5.00; at Recombinant TDO it was greater than 6.00; against CYP2D6, less than 5.00.

With `CCOC(=O)N1CCCC(NC(=O)c2ccc(-c3c[nH]c4cc(F)ccc34)cc2)C1` (centres unmarked) [Example 121, Ethyl 3-[[4-(6-fluoro-1H-indol-3-yl)benzoyl]amino]piperidine-1-carboxylate], the negative logarithm of the IC50 (pIC50) was less than 5.00 against CYP3A4, greater than 6.00 at Recombinant TDO and less than 5.00 at CYP2D6.

As to `CN(C)C(=O)Nc1ccc(-c2c[nH]c3cc(F)ccc23)cc1` [Example 7, 3-[4-(6-Fluoro-1H-indol-3-yl)phenyl]-1,1-dimethyl-urea], the pIC50 against CYP3A4 was less than 5.00; at Recombinant TDO it was 5.30 to 6.00; against CYP2D6, less than 5.00.

With `O=C(NCC(F)(F)F)c1ccc(-c2c[nH]c3ccc(F)cc23)cc1` [Example 39, 4-(5-Fluoro-1H-indol-3-yl)-N-(2,2,2-trifluoroethyl)benzamide], the pIC50 on CYP3A4 is less than 5.00; on Recombinant TDO, greater than 6.00; against CYP2D6 it was less than 5.00.

In the case of `C[C@H](CO)NC(=O)c1ccc(-c2c[nH]c3ccc(F)cc23)cc1` [Example 37, 4-(5-Fluoro-1H-indol-3-yl)-N-[(1R)-2-hydroxy-1-methyl-ethyl]benzamide], the negative-log IC50 (pIC50) against CYP3A4 was less than 5.00; at Recombinant TDO it was greater than 6.00; at CYP2D6, less than 5.00.

Take `COC(=O)[C@@H](C)NC(=O)c1ccc(-c2c[nH]c3cc(F)ccc23)cc1` [Example 18, Methyl (2R)-2-[[4-(6-fluoro-1H-indol-3-yl)benzoyl]amino]propanoate]: the pIC50 on CYP3A4 was less than 5.00; at Recombinant TDO, greater than 6.00; at CYP2D6 it was less than 5.00.

With `Cc1cc(C(=O)N[C@@H](C)CO)ccc1-c1c[nH]c2cc(F)ccc12` [Example 126, 4-(6-Fluoro-1H-indol-3-yl)-N-[(1S)-2-hydroxy-1-methyl-ethyl]-3-methyl-benzamide], the pIC50 on CYP3A4 is 5.00 to 5.30; on Recombinant TDO, 5.30 to 6.00; against CYP2D6, 5.00 to 5.30.

Regarding `O=C(NOC[C@H](O)CO)c1ccc(-c2c[nH]c3cc(F)ccc23)cc1` [Example 67, N-[(2R)-2,3-dihydroxypropoxy]-4-(6-fluoro-1H-indol-3-yl)benzamide], the pIC50 on CYP3A4 is 5.00 to 5.30; at Recombinant TDO, greater than 6.00; on CYP2D6, less than 5.00.

Take `O=C(NC[C@H]1CCNC1)c1ccc(-c2c[nH]c3cc(F)ccc23)cc1` [Example 91, 4-(6-Fluoro-1H-indol-3-yl)-N-[[(3S)-pyrrolidin-3-yl]methyl]benzamide]: the pIC50 is 5.00 to 5.30 at CYP3A4, greater than 6.00 at Recombinant TDO and less than 5.00 on CYP2D6.

As for `CC(C)NC(=S)N1CCC[C@@H](CNC(=O)c2ccc(-c3c[nH]c4cc(F)ccc34)cc2)C1` [Example 92, 4-(6-Fluoro-1H-indol-3-yl)-N-[[(3S)-1-(isopropylcarbamothioyl)-3-piperidyl]methyl]benzamide], the figures for the pIC50 against CYP3A4, at Recombinant TDO and against CYP2D6 were less than 5.00, 5.30 to 6.00 and less than 5.00, respectively.

As for `NCCNC(=O)c1ccc(-c2c[nH]c3cc(F)ccc23)cc1` [Example 90, N-(2-aminoethyl)-4-(6-fluoro-1H-indol-3-yl)benzamide], the pIC50 at CYP3A4 is less than 5.00; on Recombinant TDO it was greater than 6.00; at CYP2D6 it was less than 5.00.

Take `O=C(Nc1ccc(-c2c[nH]c3cc(F)ccc23)cc1)C1CCC1(F)F` (centres unmarked) [Example 101, 2,2-Difluoro-N-[4-(6-fluoro-1H-indol-3-yl)phenyl]cyclobutanecarboxamide]: the negative logarithm of the IC50 (pIC50) against CYP3A4 and against CYP2D6 was less than 5.00 throughout.

Source of the values: US10689343B2, “Inhibitors of tryptophan 2,3-dioxygenase” (NETHERLANDS TRANSLATIONAL RESEARCH CENTER B.V., priority 2016, dated 2020).
